Results from PubChem BioAssay AID743267 (Broad Institute, 2014).
Several values for one entry are separate records, joined by “and”; a condition that tells them apart may be missing. Equal entries are not always repeated.

Tested on: human bronchial epithelial cells, CFTR corrector, plate reader
Experiment: CFTR ΔF508 corrector activity in bronchial cells, dose response, human bronchial epithelial cells, plate reader, cherry-pick, two tests (AID 743267)
Details: measured here: test 1 replicate run

Going from `COc1ccc(S(=O)(=O)Nc2ccc3c(c2)C(=O)N([C@H](C)CO)C[C@@H](C)[C@@H](CN(C)Cc2ccc(C(F)(F)F)cc2)O3)cc1` to `C[C@@H]1CN([C@H](C)CO)C(=O)c2cc(NS(=O)(=O)c3ccc(Cl)cc3)ccc2O[C@@H]1CN(C)Cc1ccc(-c2ccccc2)cc1`, the AC50 falls from greater than 50 µM to 46.3 µM.

Compared with `COc1cccc(-c2cccc(-c3nc(C(=O)NCC(F)(F)F)cc4c3[C@H](CCO)N([S@@](=O)C(C)(C)C)C4)c2)c1`, `COc1ccccc1S(=O)(=O)N1CC[C@@H]2[C@@H](CO)N(C)c3ccc(-c4ccc(F)cc4)cc3[C@@H]21` is 5.5-fold higher in AC50: 2.75 µM for the first, 15 µM for the second.

First: CS(=O)(=O)N1CC(=O)N2[C@H](C1)[C@H](c1ccc(C#Cc3ccc(F)cc3)cc1)[C@@H]2CO
Second: COc1ccc(-c2ccc3c(c2)[C@H]2[C@H](CCN2S(=O)(=O)c2ccc(OC)cc2)[C@H](CO)N3C)cc1
The AC50 of the first is 20-fold higher: 23.9 µM for the first, 1.17 µM for the second.

First: CN1C(=O)c2cc(NC(=O)c3ccc(Cl)cc3)ccc2OC[C@@H]2O[C@H](CC(=O)NCc3cccc(F)c3)CC[C@H]21
Second: COc1ccc(-c2ccc3c(c2)[C@H]2[C@H](CCN2S(=O)(=O)c2ccc(OC)cc2)[C@@H](CO)N3C)cc1
The AC50 of the first is 2.1-fold lower: 4.62 µM for the first, 9.59 µM for the second.

Same assay, conditions: measured here: test 2 replicate run

Going from `COc1cccc(N=Nc2ccc3cccnc3c2O)c1` to `CC(=O)NC(c1ccc(Cl)cc1Cl)c1ccc2cccnc2c1O` (configuration not stated), the AC50 falls from greater than 50 µM to 2.63 µM.

First: CC(C)CN(CCCNC(=O)CN1C(=O)CSc2ccc(S(=O)(=O)N3CCOCC3)cc21)CC(C)C
Second: Cc1cc(NC(=O)CN2C(=O)NC3(CCCCCC3)C2=O)ccc1Br
The AC50 of the first is higher: greater than 50 µM for the first, 8.4 µM for the second.

Going from `CCOC(=O)c1oc2ccc(S(=O)(=O)n3nc(-c4ccccc4)cc3N)cc2c1C` to `Cc1ccccc1-c1nc(CS(=O)(=O)CC(=O)NCc2ccccc2)c(C)o1`, the AC50 rises from 6.82 µM to greater than 50 µM.

`Cc1ccc2nc(-c3ccc4c(c3)OCCO4)cn2c1` and `CC1(C(=O)NCc2ccco2)Cc2c(-c3ccc4c(c3)OCO4)ccnc2O1` (configuration not stated) are within 1.5-fold of each other in AC50: 2.33 µM for the first, 1.88 µM for the second.

Compared with `COc1ccc2c(c1OC)OCC2C` (configuration not stated), `COc1ccc(OC)c(Nc2cc(C)nc3ccc(C)cc23)c1` is 2.8-fold lower in AC50: 30.2 µM for the first, 10.7 µM for the second.

First: CCN(C(=O)CSc1nnc(C)n1-c1ccc(C)cc1)c1c(N)n(Cc2ccccc2)c(=O)[nH]c1=O
Second: COc1ccccc1NC(=S)N(Cc1ccco1)Cc1cc2cc(C)cc(C)c2[nH]c1=O
The AC50 of the first is higher: greater than 50 µM for the first, 7 µM for the second.

Compared with `COc1ccc(C2=NOC(C(=O)NCc3ccc(F)cc3)C2)cc1OC` (configuration not stated), `COc1ccc(CNS(=O)(=O)c2cc(-c3cc(C)no3)ccc2C(C)C)cc1` is 2-fold higher in AC50: 1.06 µM for the first, 2.16 µM for the second.

First: O=c1cc(-c2ccccc2)[nH]c2ccc(F)cc12
Second: COc1cccc(-c2cc3nc(-c4ccccc4)cc(=O)n3[nH]2)c1
The AC50 of the first is higher: greater than 50 µM for the first, 2.35 µM for the second.

Going from `Cc1ccc(C(=O)N/N=C/c2cc(Br)ccc2O)cn1` to `Cc1ccc(/C=N/NC(=O)c2ccc3ccccc3c2)s1`, the AC50 rises from 0.672 µM to 2.05 µM (3.1-fold).

First: COc1cccc2c1C(=O)c1c(O)c3c(c(O)c1C2=O)CC(O)(C(=O)CO)CC3OC1CC(N(C)C)C(O)C(C)O1 (configuration not stated)
Second: CC/C=C/CC(=O)N[C@@H](c1ccccc1)[C@@H](O)C(=O)O[C@H]1C[C@@]2(O)[C@@H](OC(=O)c3ccccc3)C3[C@](C)(C(=O)[C@H](OC(C)=O)C(=C1C)C2(C)C)[C@@H](O)C[C@H]1OC[C@@]31OC(C)=O (some centres not stated)
The AC50 of the first is 3-fold higher: 10.1 µM for the first, 3.4 µM for the second.

`Cc1ccnc2c1ccc1cccnc12` and `Cn1nccc1C(=O)N/N=C/c1c(O)ccc2ccccc12` are within 1.5-fold of each other in AC50: 18.3 µM for the first, 19.2 µM for the second.

Compared with `COc1ccc(NC(=O)c2nc(C)c(C3(C)CC(c4cccnc4)=NO3)s2)cc1` (configuration not stated), `COc1ccc(CNCC(=O)Nc2ccccc2-n2cccc2)cc1` is 2.3-fold higher in AC50: 2.75 µM for the first, 6.21 µM for the second.

Going from `COc1ccccc1Nc1c2c(nc3ccccc13)CCC2` to `Cn1c(CC(=O)NN)c(Sc2ccccc2)c2ccccc21`, the AC50 rises from 6.89 µM to greater than 50 µM.

First: Cc1cc(Cl)cc(C)c1OCCn1ccnc1
Second: CCN(CC)c1ccc(/C=N/NC(=O)c2cnccn2)c(O)c1
The AC50 of the first is 2.1-fold higher: 4.68 µM for the first, 2.2 µM for the second.

Going from `Nc1ccn([C@@H]2O[C@H](C(=O)NCC(F)(F)F)[C@@H](O)[C@H]2O)c(=O)n1` to `CC(=O)c1cccc(-c2ccnc3c2CC(C(=O)NCc2ccco2)O3)c1` (configuration not stated), the AC50 falls from greater than 50 µM to 2.01 µM.

`CN(C)CCNc1ccc2ncn3c4ccc(O)cc4c(=O)c1c23` and `CCN(CC)c1ccc(/C=N/NC(=O)c2ccco2)c(O)c1` are within 1.5-fold of each other in AC50: 2.03 µM for the first, 2.3 µM for the second.

Going from `CCC1=Nc2cc(C(=O)NCC3CCCO3)ccc2Sc2ccc(Cl)cc21` (configuration not stated) to `COc1cccc(N2CCN(C(=O)c3ccc(CS(=O)c4ccc(Cl)cc4)o3)CC2)c1` (configuration not stated), the AC50 falls from 7.26 µM to 1.48 µM (4.9-fold).

`C[C@@H](N)Cc1cnc[nH]1` and `COc1ccc(OC)c(-c2cnc(OC(C)(C)C)nc2OC(C)(C)C)c1` are within 1.5-fold of each other in AC50: 20.1 µM for the first, 13.9 µM for the second.

Compared with `C#C[C@]1(O)CC[C@H]2[C@@H]3CCc4cc(OC)ccc4[C@H]3CC[C@@]21C`, `COC(=O)C1=CN(c2ccc3c(c2)OCO3)C(N)=C(C#N)C1c1cccc(F)c1` (configuration not stated) is 1.6-fold lower in AC50: 2.48 µM for the first, 1.55 µM for the second.

Compared with `Cc1nc(C)c(C(=O)NN=Cc2ccc(N(CCCl)CCCl)cc2)s1`, `Cc1occc1C(=O)N/N=C/c1c(O)ccc2ccccc12` is lower in AC50: greater than 50 µM for the first, 1.84 µM for the second.

Compared with `Cc1cccc(N2CCN(Cc3cn(C)nc3-c3ccccc3F)CC2)n1`, `N#C/C(=C\c1ccccn1)c1nc2ccccc2s1` is 10-fold higher in AC50: 2.43 µM for the first, 24.2 µM for the second.

Compound `COc1cc(-c2nccc3cc4c(cc23)OCO4)cc(OC)c1OC` has an AC50 of 6.02 µM.

With `C[n+]1c2cc(N)ccc2cc2ccc(N)cc21` the AC50 was 3.52 µM and 2.96 µM.
